{"source": "patent US20260231968A1", "about": "“AN ECO-FRIENDLY, SUSTAINABLE FOOD PRESERVATIVE” (priority 2023, published 2026)", "molecules": {"B1": {"name": "S100a8: Recombinant S100 protein; human S100a8 sequence SEQ ID NO: 3 (protein, listed as Homo sapiens)", "chain": "MLTELEKALNSIIDVYHKYSLIKGNFHAVYRDDLKKLLETECPQYIRKKGADVWFKELDINTDGAVNFQEFLILVIKMGVAAHKKSHEESHKE"}, "B2": {"name": "S100a12: S100 protein; human S100a12 sequence SEQ ID NO: 6 (protein, listed as Homo sapiens)", "chain": "MTKLEEHLEGIVNIFHQYSVRKGHFDTLSKGELKQLLTKELANTIKNIKDKAVIDEIFQGLDANQDEQVDFQEFISLVAIALKAAHYHTHKE"}, "B3": {"name": "S100a9: Recombinant S100 protein; human S100a9 sequence SEQ ID NO: 4 (protein, listed as Homo sapiens)", "chain": "MTCKMSQLERNIETIINTFHQYSVKLGHPDTLNQGEFKELVRKDLQNFLKKENKNEKVIEHIMEDLDTNADKQLSFEEFIMLMARLTWASHEKMHEGDEGPGHHHKPGLGEGTP"}}, "key": {"[1]": {"system": "Aspergillus flavus", "assay": "Microbial Growth Inhibition Test, broth microdilution optical method", "assay_type": "cell-based", "conditions": "12 μM", "description": "The IC90 of psoriasin for several microorganisms was determined by Microbial Growth Inhibition Tests. The tests were performed using the Broth Microdilution Optical Method based on standardized protocols M27 (yeasts) and M38 (filamentous fungi) of the Clinical and Laboratory Standards Institute. […] MOPS, LB (Luria-Bertani), and TSB ([…]) medium types were used, depending on the species being tested. The absorbance was calibrated to each species, and was measured between 450 nm to 650 nm.\nIn addition, ethyl lauroyl arginate (LAE), a commercially available food preservative, was tested in similar growth conditions as a reference."}, "[2]": {"system": "initial microbial load of plant-based meat substitute", "assay": "Microbial load of plant-based meat substitute during storage", "assay_type": "cell-based", "description": "The ability of psoriasin to extend the shelf life of a plant-based meat substitute was examined under standard storage conditions. Three groups, each stored as an open package at […], were assessed over the course of 16 days. The groups included i) an untreated control, ii) a nisin-treated sample, and iii) a psoriasin-treated sample at 0.65%. A single source of the plant-based meat substitute was used and each group was reproduced in triplicate. The microbial load of the plant-based meat substitute samples was based on the initial microbial load without the addition of antibiotics and without the addition of mold, yeast or bacteria. Samples from each group were taken on days 1, 3, 5, 10, 11 and 16 and total CFU count was determined by plating on LB and PDA agar petri dishes."}, "[3]": {"system": "E. coli BL21 cells", "assay": "E. coli growth in LB with S100a8 / S100a9", "assay_type": "cell-based", "conditions": "37° C; for inhibition of E. coli growth: 0.18 μM to 50 μM", "description": "E. coli cells in LB media were incubated in a 96-well plate at 37° C. with S100a8 (FIG. 10A) or S100a9 (FIG. 10B) at concentrations varying from 0.18 μM to 50 μM. Optical density was measured every 10 minutes by absorbance at 600 nm over the course of approximately 19 hours. […] In addition, the same experiment was performed using varying equimolar concentrations of S100a8 and S100a9 that were pre-incubated for two hours at 4° C. under constant shaking."}, "[4]": {"system": "C. albicans", "assay": "C. albicans growth in RPMI-MOPS with S100a12", "assay_type": "cell-based, Candida albicans", "conditions": "30° C, approximately 19 hours", "description": "C. albicans cells in RPMI-MOPS were incubated in a 96-well plate at 30° C. with S100a12 at concentrations of 0.32, 2.5, 5 and 20 μM (FIG. 11). Optical density was measured every 10 minutes by absorbance at 600 nm over the course of approximately 19 hours."}}, "data": [{"molecule": "CCCCCCCCCCCC(=O)N[C@@H](CCCN=C(N)N)C(=O)OCC", "note": "[LAE, ethyl lauroyl arginate, reference compound]", "values": [{"measurement": "inhibition of A. flavus growth", "setting": "[1]", "result": "approximately 40%"}]}, {"molecule": "nisin [reference compound]", "values": [{"measurement": "Yeast & Mold Count", "setting": "[2]; Day 1", "result": "2 × 10^2"}, {"measurement": "Total CFU count", "setting": "[2]; Day 1, open package, psoriasin 0.65%", "result": "1.2 × 10^4 CFU"}, {"measurement": "Total CFU count", "setting": "[2]; Day 3", "result": "1.2 × 10^4 CFU"}, {"measurement": "Yeast & Mold Count", "setting": "[2]; Day 3", "result": "2 × 10^2"}, {"measurement": "Total CFU count", "setting": "[2]; Day 5", "result": "5 × 10^4 CFU"}, {"measurement": "Yeast & Mold Count", "setting": "[2]; Day 5", "result": "1.4 × 10^3"}, {"measurement": "Total CFU count", "setting": "[2]; Day 10", "result": "1.8 × 10^8 CFU"}, {"measurement": "Yeast & Mold Count", "setting": "[2]; Day 10", "result": "1.47 × 10^4"}, {"measurement": "Total CFU count", "setting": "[2]; Day 11", "result": "2.35 × 10^8 CFU"}, {"measurement": "Yeast & Mold Count", "setting": "[2]; Day 11", "result": "1.46 × 10^4"}, {"measurement": "Total CFU count", "setting": "[2]; Day 16", "result": "1.28 × 10^10 CFU"}, {"measurement": "Yeast & Mold Count", "setting": "[2]; Day 16", "result": "3.2 × 10^4"}]}, {"molecule": "B1", "values": [{"measurement": "inhibition of E. coli growth", "setting": "[3]", "result": "Inhibit Growth of E. coli BL21 Cells"}, {"measurement": "concentration giving full inhibition of E. coli growth", "setting": "[3]; approximately 19 hours, OD 600 nm", "result": "≤ 1.5", "unit": "µM"}]}, {"molecule": "B2", "values": [{"measurement": "concentration with significant inhibition of C. albicans growth", "setting": "[4]", "result": "≥ 0.32", "unit": "µM"}]}, {"molecule": "B3", "values": [{"measurement": "inhibition of E. coli growth", "setting": "[3]", "result": "Inhibit Growth of E. coli BL21 Cells"}]}]}
